Where a SMILES comes first, the peptide text is derived from it. [ ]: non-standard residue; d: D form. βAla = NCCC(=O)O
Key:
[1] = test system: Jurkat cell; settings: read-out: IC50, blocking Jurkat cell adhesion to CS-1 coated plates; cited from earlier work
[2] = test system: Jurkat cells; settings: cited from earlier work
[3] = molecular target: αvβ3 (Homo sapiens, UniProt P05106+P06756); settings: cited from earlier work
[4] = molecular target: αIIbβIIIa (Homo sapiens, UniProt P05106+P08514); settings: cited from earlier work
[5] = biological tests (not specified); settings: at 200 μM
[6] = test system: leukocyte cell; settings: cited from earlier work
[7] = test system: 120 kDa chymotryptic fragment of fibronectin; settings: cited from earlier work

Chain of αvβ3 (P06756 31-889 limits assumed): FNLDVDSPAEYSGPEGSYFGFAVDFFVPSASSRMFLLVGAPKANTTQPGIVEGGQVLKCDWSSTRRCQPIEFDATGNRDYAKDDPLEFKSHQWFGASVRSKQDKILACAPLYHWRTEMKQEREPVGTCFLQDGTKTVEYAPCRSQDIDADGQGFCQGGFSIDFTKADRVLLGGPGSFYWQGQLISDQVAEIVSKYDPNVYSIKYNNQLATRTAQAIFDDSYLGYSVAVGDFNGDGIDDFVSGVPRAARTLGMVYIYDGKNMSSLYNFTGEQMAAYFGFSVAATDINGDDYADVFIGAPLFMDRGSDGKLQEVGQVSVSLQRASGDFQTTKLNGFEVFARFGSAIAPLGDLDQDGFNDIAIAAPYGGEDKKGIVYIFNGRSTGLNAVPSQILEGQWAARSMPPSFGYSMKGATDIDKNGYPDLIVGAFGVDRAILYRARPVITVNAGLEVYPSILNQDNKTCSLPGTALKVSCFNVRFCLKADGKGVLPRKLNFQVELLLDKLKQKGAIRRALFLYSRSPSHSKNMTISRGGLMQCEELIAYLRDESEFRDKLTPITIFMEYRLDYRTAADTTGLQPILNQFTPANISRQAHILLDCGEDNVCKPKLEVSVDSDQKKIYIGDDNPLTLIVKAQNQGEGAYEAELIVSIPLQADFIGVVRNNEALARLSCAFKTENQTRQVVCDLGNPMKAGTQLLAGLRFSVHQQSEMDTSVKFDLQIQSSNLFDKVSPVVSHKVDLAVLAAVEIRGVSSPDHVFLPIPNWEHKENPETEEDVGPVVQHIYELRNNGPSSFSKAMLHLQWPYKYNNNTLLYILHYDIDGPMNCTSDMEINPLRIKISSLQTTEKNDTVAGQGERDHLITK
Chain of αvβ3 (P06756 891-1048 partner limits assumed): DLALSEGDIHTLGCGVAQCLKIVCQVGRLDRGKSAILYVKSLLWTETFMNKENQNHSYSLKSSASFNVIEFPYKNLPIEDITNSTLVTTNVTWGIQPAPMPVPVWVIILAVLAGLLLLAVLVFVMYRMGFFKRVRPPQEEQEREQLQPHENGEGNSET
Chain of αvβ3 (P05106 27-788): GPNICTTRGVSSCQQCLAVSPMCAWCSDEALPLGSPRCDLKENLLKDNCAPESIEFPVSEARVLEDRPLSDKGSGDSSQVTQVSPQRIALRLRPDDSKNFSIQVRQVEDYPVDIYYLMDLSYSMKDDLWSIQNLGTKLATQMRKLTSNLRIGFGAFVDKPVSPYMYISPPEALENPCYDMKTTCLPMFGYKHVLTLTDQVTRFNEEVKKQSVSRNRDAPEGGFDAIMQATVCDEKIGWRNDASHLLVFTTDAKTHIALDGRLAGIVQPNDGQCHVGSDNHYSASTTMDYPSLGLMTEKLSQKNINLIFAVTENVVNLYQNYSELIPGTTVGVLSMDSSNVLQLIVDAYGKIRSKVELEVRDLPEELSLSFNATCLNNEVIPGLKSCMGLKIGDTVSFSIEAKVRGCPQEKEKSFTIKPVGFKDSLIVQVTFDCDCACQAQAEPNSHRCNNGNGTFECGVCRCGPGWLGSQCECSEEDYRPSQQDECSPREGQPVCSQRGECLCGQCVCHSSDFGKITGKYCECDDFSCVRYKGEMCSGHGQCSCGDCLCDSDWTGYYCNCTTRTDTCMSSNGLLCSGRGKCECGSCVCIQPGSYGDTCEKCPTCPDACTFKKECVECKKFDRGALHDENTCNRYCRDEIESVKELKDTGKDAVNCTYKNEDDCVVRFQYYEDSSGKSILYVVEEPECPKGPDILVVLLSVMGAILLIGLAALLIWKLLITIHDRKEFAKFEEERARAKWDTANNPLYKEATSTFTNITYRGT
Chain of αIIbβIIIa (P08514 32-887 limits assumed): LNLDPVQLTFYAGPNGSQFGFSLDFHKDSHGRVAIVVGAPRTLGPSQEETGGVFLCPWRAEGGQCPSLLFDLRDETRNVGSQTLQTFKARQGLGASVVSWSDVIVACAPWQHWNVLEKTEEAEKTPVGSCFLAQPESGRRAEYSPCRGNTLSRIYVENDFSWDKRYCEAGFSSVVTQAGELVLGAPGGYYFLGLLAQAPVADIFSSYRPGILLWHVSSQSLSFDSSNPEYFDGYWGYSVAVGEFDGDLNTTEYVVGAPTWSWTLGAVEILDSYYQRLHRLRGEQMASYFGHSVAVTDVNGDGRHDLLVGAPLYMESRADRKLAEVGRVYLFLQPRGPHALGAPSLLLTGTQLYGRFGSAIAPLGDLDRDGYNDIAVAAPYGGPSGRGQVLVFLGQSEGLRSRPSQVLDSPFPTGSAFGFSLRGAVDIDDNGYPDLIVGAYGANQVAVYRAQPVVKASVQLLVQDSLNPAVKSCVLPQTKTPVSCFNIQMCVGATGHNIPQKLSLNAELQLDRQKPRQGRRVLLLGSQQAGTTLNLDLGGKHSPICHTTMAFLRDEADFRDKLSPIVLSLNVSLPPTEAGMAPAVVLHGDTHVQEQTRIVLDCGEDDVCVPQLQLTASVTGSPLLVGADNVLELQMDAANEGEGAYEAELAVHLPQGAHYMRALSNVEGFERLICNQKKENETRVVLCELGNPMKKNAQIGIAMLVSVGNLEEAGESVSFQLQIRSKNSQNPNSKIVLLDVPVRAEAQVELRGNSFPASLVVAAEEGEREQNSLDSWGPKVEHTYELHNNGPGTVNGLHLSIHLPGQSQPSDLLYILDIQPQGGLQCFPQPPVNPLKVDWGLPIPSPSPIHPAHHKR
Chain of αIIbβIIIa (P08514 891-1039 partner limits assumed): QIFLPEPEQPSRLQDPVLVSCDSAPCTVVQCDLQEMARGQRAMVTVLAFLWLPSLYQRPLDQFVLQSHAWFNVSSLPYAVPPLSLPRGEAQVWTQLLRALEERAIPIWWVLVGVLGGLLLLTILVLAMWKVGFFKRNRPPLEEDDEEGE
Chain of αIIbβIIIa (P05106 27-788): as the sequence (P05106 27-788) above

For “1-adamantaneacetyl-Cys-Gly-Arg-Gly-Asp-Ser-Pro-Cys”, the IC50 [1] is listed as 30 µM, the “inhibition of Jurkat cell binding to fibronectin coated plates” value [2] is listed as “inhibited the binding” and the “inhibition of function in αvβ3-dependent assay” value [3] is listed as “inhibited function”. The “inhibition of function in αIIbβIIIa-dependent assay” value [4] was “inhibited function”.

With `CC[C@H](C)[C@@H]1NC(=O)CCNC(=O)[C@H](C(C)C)NC(=O)[C@H](CC(=O)O)NC(=O)[C@H](CC(C)C)NC1=O` (cyclo(DV[βAla]IL)) the “activity in biological tests” value [5] was “inactive”.

In the case of Arg-Cys-Asp-thioproline-Cys, the “inhibition of leukocyte cell adhesion to fibronectin” value [6] is listed as “inhibitor of leukocyte cell adhesion to fibronectin” and the “inhibition of binding to 120 kDa fibronectin fragment” value [7] is listed as “inhibited the binding”.

In the case of “Cys-Leu-His-Gly-Pro-Glu-Ile-Ieu-Asp-Val-Pro-Ser-Thr”, the IC50 [1] is listed as 30 µM.

— patent publication US6034056A, “Fibronectin adhesion inhibitors” (Zeneca Limited, priority 1994, dated 2000)
